Experimental data from US20200038478A1, “POLYPEPTIDE AND COMPOSITION THEREOF FOR TREATING DISEASES OF METABOLIC SYSTEM” (WUHAN GRECTECH CO., LTD., priority 2017, published 2020).
Counter-ions that a name gives are not always drawn.

What was measured:
[1] = tested on: mouse models of type 2 diabetes; assay: Polypeptide mixture vs metformin, mouse models of type 2 diabetes, single gavage (Example 17); details: KK mice, polypeptide 2 mg/mL, metformin 20 mg/mL, each 0.05 ml/10 g
diabetic mice [2] = assay: Serum TC and TG in STZ diabetic mice after 4 weeks (Example 25); type: in vivo; details: after 4 weeks intragastric treatment, STZ + high-fat diet BALB/c mice
Procedure: Male BALB/c mice at 7 weeks of age, after adapting to the environment for 2 days, were randomly divided into normal control group (10 mice) and model-to-be established groups (70 mice). The mice in the normal control group were fed with normal diet. The mice in the model-to-be established groups were fed with high-fat diet, intraperitoneally injected with streptozotocin (STZ) in citrate buffer at a dose of 100 mg/kg, and then the diabetic mouse model was established. […] The mice with the blood glucouse level higher than 11.0 mmol/L and at the same time having polydipsia and polyuria were selected out as the diabetic mice. Then the selected diabetic mice were randomly divided into four groups: model control group, metformin group, Composition E group and Composition F group, 10 mice in each group. The mice were intragastric administered with the corresponding drugs: normal saline (100 μL for each mouse), metformin (0.05 ml/10 g), Composition E (0.05 ml/10 g) and Composition F (0.05 ml/10 g), respectively, once a day for 4 weeks. The mice in normal control group were administered with normal saline (100 μL for each mouse). […]
After the end of experiment, blood samples were collected from the eyeballs of the mice, serum was separated and the serum levels of TC and TG were detected.

[3] = tested on: mouse models of type 2 diabetes; assay: Hypoglycemic activity of solid compositions, STZ/high-fat diet diabetic mice, gavage 4 weeks (Example 24); type: in vivo; details: fasting; STZ + high-fat diet C57BL/6 mice; gavage once a day; compositions 2 mg/mL polypeptide O, metformin 20 mg/mL (100 mg/Kg), each 0.05 ml/10 g
Procedure: Male C57BL/6 mice at 4 weeks of age, after adapting to the environment for 5 days, were randomly divided into normal control group (10 mice) and model-to-be established groups (90 mice). The mice in the normal control group were fed with normal diet. The mice in the model-to-be established groups were fed with high-fat diet and intraperitoneally injected with streptozotocin (STZ) in citrate buffer at a dose of 45 mg/kg. After injection, the mice were fasted for 1.5 hours and injected for 5 consecutive days, and then the diabetic mouse model was established. […] The mice with the fasting blood glucouse level between 10.0 and 20.0 mmol/L and at the same time having polydipsia and polyuria were selected out as the diabetic mice. Then, the selected diabetic mice were randomly divided into five groups: model control group, metformin group, Composition D group, […], and […], 10 mice in each group. The mice were administered by gavage with the corresponding drug: normal saline (100 μL for each mouse), metformin (0.05 ml/10 g), composition D (0.05 ml/10 g), composition E (0.05 ml/10 g) and composition F (0.05 ml/10 g), respectively, once a day for 4 weeks. The mice in normal control group were administered with normal saline (100 μL for each mouse). The diabetic mice were fed with high-fat diet continuously and drank water freely, and the mice in normal control group were fed with normal diet and drank water freely.

[4] = tested on: mouse models of type 2 diabetes; assay: Oral glucose tolerance test after 4-week treatment (Example 20); type: in vivo, KK mice; details: glucose 2.5 g/kg by gavage one hour after last dose of 4-week gavage treatment
Procedure: 2.4 Oral glucose tolerance test: one hour after the last administration, the remaining mice in the diabetic model control group, metformin treatment group, polypeptide treatment group and normal control group (10 mice in each group) after the selection in experiment 2.3 were administered by gavage with glucose at a dose of 2.5 g/kg.

diabetic mice [5] = assay: Fasting blood glucose in STZ diabetic mice, intragastric 4 weeks (Example 25); type: in vivo, BALB/c mice
Procedure: Male BALB/c mice at 7 weeks of age, after adapting to the environment for 2 days, were randomly divided into normal control group (10 mice) and model-to-be established groups (70 mice). The mice in the normal control group were fed with normal diet. The mice in the model-to-be established groups were fed with high-fat diet, intraperitoneally injected with streptozotocin (STZ) in citrate buffer at a dose of 100 mg/kg, and then the diabetic mouse model was established. […] The mice with the blood glucouse level higher than 11.0 mmol/L and at the same time having polydipsia and polyuria were selected out as the diabetic mice. Then the selected diabetic mice were randomly divided into four groups: model control group, metformin group, Composition E group and Composition F group, 10 mice in each group. The mice were intragastric administered with the corresponding drugs: normal saline (100 μL for each mouse), metformin (0.05 ml/10 g), Composition E (0.05 ml/10 g) and Composition F (0.05 ml/10 g), respectively, once a day for 4 weeks. The mice in normal control group were administered with normal saline (100 μL for each mouse). The diabetic mice were fed with high-fat diet continuously and drank water freely, and the mice in normal control group were fed with normal diet and drank water freely.

[6] = tested on: mouse models of type 2 diabetes; assay: Pancreas weight, H&E staining and immunohistochemistry after 4-week treatment (Example 20); type: in vivo; details: KK mice sacrificed after treatment for four weeks by gavage
Text: 2.5 All mice were sacrificed after treatment for four weeks, and the pancreatic tissues were weighed, stained with H&E and detected by immunohistochemistry.

[7] = tested on: mouse models of type 2 diabetes; assay: Blood glucose during 4-week gavage treatment, polypeptide mixture vs metformin (Example 20); details: KK mice, metformin 20 mg/mL, each 0.05 ml/10 g
[8] = tested on: mouse models of type 2 diabetes; assay: Insulin tolerance test after 4-week treatment (Example 20); type: in vivo, KK mice; details: insulin 0.5 U/mL at 0.05 ml/10 g s.c. one hour after last dose of 4-week gavage treatment
[9] = fasting, STZ (100 mg/kg) + high-fat diet BALB/c mice, intragastric once a day, compositions 2 mg/mL polypeptide O, metformin 200 mg/mL (1000 mg/kg), each 0.05 ml/10 g
[10] = gavage once a day, polypeptide tablet suspension 2 mg/ml

Compound: CN(C)C(=N)N=C(N)N [Metformin, Metformin hydrochloride]
- Blood glucose level at 15 min after administration [1]: 12.6 ± 1.2 mmol/L
- Blood glucose level at 30 min after administration [1]: 10.4 ± 0.9 mmol/L
- Blood glucose level at 45 min after administration [1]: 9.3 ± 0.8 mmol/L
- Blood glucose level at 60 min after administration [1]: 8.2 ± 0.5 mmol/L
- Blood glucose level prior to administration ([1]; baseline): 14.2 ± 1.1 mmol/L
- TC (diabetic mice [2]): 2.32 ± 0.78 mmol/L
- TG (diabetic mice [2]): 1.87 ± 1.26 mmol/L
- Blood glucose level after four weeks [3]: 9.2 ± 0.9 mmol/L
- Blood glucose level after one week [3]: 11.9 ± 0.6 mmol/L
- Blood glucose level after three weeks [3]: 11.3 ± 1.2 mmol/L
- Blood glucose level after two weeks [3]: 13.2 ± 0.5 mmol/L
- 0 min blood glucose level [4]: 6.8 ± 0.8 mmol/L
- 30 min blood glucose level [4]: 16.8 ± 4.1 mmol/L
- 60 min blood glucose level [4]: 13.4 ± 2.4 mmol/L
- 90 min blood glucose level [4]: 10.6 ± 3.2 mmol/L
- 120 min blood glucose level [4]: 8.2 ± 1.7 mmol/L
- Blood glucose level after four weeks (diabetic mice [5]; [9]): 8.0 ± 0.7 mmol/L
- Blood glucose level after one week (diabetic mice [5]; [9]): 12.6 ± 0.7 mmol/L
- Blood glucose level after three weeks (diabetic mice [5]; [9]): 12.3 ± 1.0 mmol/L
- Blood glucose level after two weeks (diabetic mice [5]; [9]): 13.5 ± 0.7 mmol/L
- control of blood glucose (conclusion) (diabetic mice [5]; metformin at ultra-high-dose 1000 mg/kg): could not control blood glucose effectively
- Pancreas weight/body weight (%) [6]: 1.32 ± 0.06%
- Initial blood glucose level ([7]; gavage once a day for 4 weeks, polypeptide tablets (mixture:hydroxypropyl methylcellulose 8:2) suspension 2 mg/ml, baseline): 9.3 ± 1.1 mmol/L
- Blood glucose level after four weeks [7, 10]: 6.8 ± 0.8 mmol/L
- Blood glucose level after one week [7, 10]: 8.1 ± 1.1 mmol/L
- Blood glucose level after three weeks [7, 10]: 7.3 ± 1.2 mmol/L
- Blood glucose level after two weeks [7, 10]: 7.2 ± 0.9 mmol/L
- 0 min blood glucose level [8]: 6.8 ± 0.8 mmol/L
- 30 min blood glucose level [8]: 4.1 ± 1.1 mmol/L
- 60 min blood glucose level [8]: 4.8 ± 1.2 mmol/L
- 90 min blood glucose level [8]: 5.4 ± 0.7 mmol/L
- 120 min blood glucose level [8]: 6.2 ± 1.3 mmol/L
